Laboratory results taken from ChEMBL document CHEMBL1909046, “DrugMatrix in vitro pharmacology data”.
Where a SMILES comes first, the peptide text is derived from it. Bridges are numbered along the chain shown (N, C = ends). [ ]: non-standard residue; d: D form. The star is where a group is joined. Threoninol(2S,3R) = C[C@@H](O)[C@H](CO)N*

How the values were obtained:
[1] = target: Beta-1 adrenergic receptor (Homo sapiens, UniProt P08588); assay: DRUGMATRIX: Adrenergic beta1 radioligand binding (ligand: [125I] Cyanopindolol); assay type: cell membranes, CHO-K1, Membrane; conditions: cho-k1; Not Active = under 50% inhibition at 10 µM
Beta-1 adrenergic receptor, sequence (P08588 whole entry): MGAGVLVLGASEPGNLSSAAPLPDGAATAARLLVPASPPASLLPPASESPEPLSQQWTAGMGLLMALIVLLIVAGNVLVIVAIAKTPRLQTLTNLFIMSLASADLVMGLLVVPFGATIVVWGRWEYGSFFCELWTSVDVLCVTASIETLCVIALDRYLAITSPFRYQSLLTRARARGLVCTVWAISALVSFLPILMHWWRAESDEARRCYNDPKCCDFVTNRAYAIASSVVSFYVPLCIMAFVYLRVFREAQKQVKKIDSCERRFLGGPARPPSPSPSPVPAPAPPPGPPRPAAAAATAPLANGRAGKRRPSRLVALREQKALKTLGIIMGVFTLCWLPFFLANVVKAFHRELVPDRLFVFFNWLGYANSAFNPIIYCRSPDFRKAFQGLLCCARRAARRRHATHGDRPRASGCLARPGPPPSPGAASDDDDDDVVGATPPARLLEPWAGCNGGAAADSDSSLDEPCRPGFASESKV

[2] = target: T1, 5-hydroxytryptamine receptor 2C (Homo sapiens, UniProt P28335); assay: DRUGMATRIX: Serotonin (5-Hydroxytryptamine) 5-HT2C radioligand binding (ligand: [3H] Mesulergine); assay type: cell membranes, CHO-K1, Membrane; conditions: cho-k1; Not Active = under 50% inhibition at 10 µM
T1 sequence (P28335 whole entry): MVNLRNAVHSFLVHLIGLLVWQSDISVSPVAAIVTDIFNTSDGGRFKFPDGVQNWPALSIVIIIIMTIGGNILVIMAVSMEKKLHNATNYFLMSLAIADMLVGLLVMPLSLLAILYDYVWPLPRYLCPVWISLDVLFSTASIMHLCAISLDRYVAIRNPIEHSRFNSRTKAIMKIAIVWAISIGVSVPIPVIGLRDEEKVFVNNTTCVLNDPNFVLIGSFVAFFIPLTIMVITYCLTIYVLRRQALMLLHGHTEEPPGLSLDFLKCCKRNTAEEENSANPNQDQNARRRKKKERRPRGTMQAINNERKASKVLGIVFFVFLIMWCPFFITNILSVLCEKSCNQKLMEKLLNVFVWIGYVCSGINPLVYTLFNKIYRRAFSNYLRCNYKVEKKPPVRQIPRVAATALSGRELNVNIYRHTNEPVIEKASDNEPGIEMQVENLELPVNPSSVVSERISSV

[3] = DRUGMATRIX: Serotonin (5-Hydroxytryptamine) 5-HT3 radioligand binding (ligand: [3H] GR-65630); assay type: cell membranes, Membrane; conditions: hek293; Not Active = under 50% inhibition at 10 µM
[4] = target: C-C chemokine receptor type 5 (Homo sapiens, UniProt P51681); assay type: cell membranes, HEK293, Membrane; conditions: hek293; also: in other assays of this panel Not Active means under 50% inhibition at 10 µM
C-C chemokine receptor type 5, sequence (P51681 whole entry): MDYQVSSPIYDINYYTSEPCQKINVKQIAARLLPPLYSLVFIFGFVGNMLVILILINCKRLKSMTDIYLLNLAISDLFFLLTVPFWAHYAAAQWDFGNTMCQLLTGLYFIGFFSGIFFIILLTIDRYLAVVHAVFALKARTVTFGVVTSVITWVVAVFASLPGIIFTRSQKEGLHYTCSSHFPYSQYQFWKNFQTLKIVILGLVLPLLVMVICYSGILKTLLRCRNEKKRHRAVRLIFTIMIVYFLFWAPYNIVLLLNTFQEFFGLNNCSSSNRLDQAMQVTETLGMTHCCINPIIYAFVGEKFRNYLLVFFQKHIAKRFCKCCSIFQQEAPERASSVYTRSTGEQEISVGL

[5] = target: T2, Cholecystokinin receptor type A (Homo sapiens, UniProt P32238); assay type: cell membranes, Membrane; conditions: 1321-n1; also: in other assays of this panel Not Active means under 50% inhibition at 10 µM
T2 sequence (P32238 whole entry): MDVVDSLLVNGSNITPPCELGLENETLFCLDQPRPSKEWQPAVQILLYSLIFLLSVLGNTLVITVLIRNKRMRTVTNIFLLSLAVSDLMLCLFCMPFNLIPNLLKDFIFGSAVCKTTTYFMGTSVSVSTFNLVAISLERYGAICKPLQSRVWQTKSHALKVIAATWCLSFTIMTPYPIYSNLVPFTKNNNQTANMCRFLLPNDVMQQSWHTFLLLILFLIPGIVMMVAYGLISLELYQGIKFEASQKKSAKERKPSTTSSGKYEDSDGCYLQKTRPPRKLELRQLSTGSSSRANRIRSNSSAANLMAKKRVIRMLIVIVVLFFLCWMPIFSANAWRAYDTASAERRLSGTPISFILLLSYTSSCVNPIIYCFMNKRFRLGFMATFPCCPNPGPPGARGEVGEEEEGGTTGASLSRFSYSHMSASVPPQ

Neutrophil elastase = target: T3, Neutrophil elastase (Homo sapiens, UniProt P08246); assay type: tissue-based;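 also: inhibition of neutrophil elastase enzyme activity, measured with a p-nitroanilide-linked peptide substrate; in other assays of this panel Not Active means under 50% inhibition at 10 µM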
T3 sequence (P08246 whole entry): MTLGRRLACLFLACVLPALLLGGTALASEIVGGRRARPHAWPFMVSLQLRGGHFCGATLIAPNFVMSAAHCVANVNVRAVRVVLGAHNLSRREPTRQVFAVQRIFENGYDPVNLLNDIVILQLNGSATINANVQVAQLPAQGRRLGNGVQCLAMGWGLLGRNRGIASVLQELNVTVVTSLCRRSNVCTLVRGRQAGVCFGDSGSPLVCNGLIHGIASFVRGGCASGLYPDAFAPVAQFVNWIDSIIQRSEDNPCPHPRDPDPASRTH

Adenosine receptor A3 = target: T4, Adenosine receptor A3 (Homo sapiens, UniProt P0DMS8); assay type: cell membranes, CHO-K1, Membrane;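 also: radioligand binding assay with AB-MECA serving as the labeled ligand; in other assays of this panel Not Active means under 50% inhibition at 10 µM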
T4 sequence (P0DMS8 whole entry): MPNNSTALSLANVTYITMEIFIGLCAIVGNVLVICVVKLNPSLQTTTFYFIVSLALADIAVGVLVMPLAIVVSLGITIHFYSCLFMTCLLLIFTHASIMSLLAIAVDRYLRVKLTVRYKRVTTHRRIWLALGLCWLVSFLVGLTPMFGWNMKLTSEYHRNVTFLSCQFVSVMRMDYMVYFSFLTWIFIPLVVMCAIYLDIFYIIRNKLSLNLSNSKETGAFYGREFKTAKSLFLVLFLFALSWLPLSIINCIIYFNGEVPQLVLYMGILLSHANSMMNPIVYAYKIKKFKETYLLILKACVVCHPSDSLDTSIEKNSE

SMILES | IC50 [1] | IC50 [2] | IC50 [3] | Ki [3] | IC50 [4] | IC50 [5] | IC50 (Neutrophil elastase) | IC50 (Adenosine receptor A3; cho-k1) | IC50 (Adenosine receptor A3; read-out: IC50) | Ki (Adenosine receptor A3; read-out: Ki) | Ki [1] | Ki [2] | Ki [4] | Ki [5] | Ki (Neutrophil elastase) | Ki (Adenosine receptor A3; cho-k1)
COc1ccccc1C(=O)N1CCC(Cc2ccccc2)CC1 | Not Active | Not Active | Not Active | Not Active | Not Active | Not Active | Not Active | Not Active |  |  |  |  |  |  |  | 
Cc1ccccc1C(=O)N1CCC(Cc2ccccc2)CC1 | Not Active | Not Active | Not Active | Not Active | Not Active | Not Active | Not Active | Not Active |  |  |  |  |  |  |  | 
O=C1CC[C@H](N2C(=O)c3ccccc3C2=O)C(=O)N1 | Not Active | Not Active | Not Active | Not Active | Not Active | Not Active | Not Active | Not Active |  |  |  |  |  |  |  | 
N=C(Nc1ccccc1)Nc1ccccc1 | Not Active | Not Active | Not Active | Not Active | Not Active | Not Active | Not Active | Not Active |  |  |  |  |  |  |  | 
C[C@@H](O)[C@H](CO)NC(=O)[C@@H]1CSSC[C@H](NC(=O)[C@H](N)Cc2ccccc2)C(=O)N[C@@H](Cc2ccccc2)C(=O)N[C@H](Cc2c[nH]c3ccccc23)C(=O)N[C@@H](CCCCN)C(=O)N[C@@H]([C@@H](C)O)C(=O)N1 (H-[dF]CF[dW]KTC-{Threoninol(2S,3R)}; disulfide 2-7) | Not Active | Not Active | Not Active | Not Active | Not Active | Not Active | Not Active | Not Active |  |  |  |  |  |  |  | 
S=C=Nc1cccc2ccccc12 [1-NAPHTHYLISOTHIOCYANATE] | Not Active | Not Active | Not Active | Not Active | Not Active | Not Active | Not Active |  | 6.1 µM | 3.45 µM |  |  |  |  |  | 
C[C@](O)(CS(=O)(=O)c1ccc(F)cc1)C(=O)Nc1ccc(C#N)c(C(F)(F)F)c1 [(R)-BICALUTAMIDE] | Not Active | Not Active | Not Active | Not Active | Not Active | Not Active | Not Active | Not Active |  |  |  |  |  |  |  | 
CCCC(=O)Nc1ccc(OCC(O)CNC(C)C)c(C(C)=O)c1 (configuration not stated) [ACEBUTOLOL] |  | Not Active | Not Active | Not Active | Not Active | Not Active | Not Active | Not Active |  |  |  |  |  |  |  | 
CC(=O)Nc1ccc(O)cc1 [ACETAMINOPHEN] | Not Active | Not Active | Not Active | Not Active | Not Active | Not Active | Not Active | Not Active |  |  |  |  |  |  |  | 
COc1cc2c(c3oc(=O)c4c(c13)CCC4=O)[C@@H]1C=CO[C@@H]1O2 [AFLATOXIN] | Not Active | Not Active | Not Active | Not Active | Not Active | Not Active | Not Active | Not Active |  |  | Not Active | Not Active | Not Active | Not Active | Not Active | Not Active
N=C(N)NC(=O)c1nc(Cl)c(N)nc1N [AMILORIDE] | Not Active | Not Active | Not Active | Not Active | Not Active | Not Active | Not Active | Not Active |  |  |  |  |  |  |  | 
Cc1cc(=O)n(-c2ccccc2)n1C [ANTIPYRINE] | Not Active | Not Active | Not Active | Not Active | Not Active | Not Active | Not Active | Not Active |  |  |  |  |  |  |  | 
